The supplement of paper PMC10307832

Key:
Test in all cases: relative viability (nuclei count vs DMSO), 5 days (fraction); higher = more cells survive
[1] = compound: Cc1ccc(C(=O)N(CCCN)[C@@H](c2nc3cc(Cl)ccc3c(=O)n2Cc2ccccc2)C(C)C)cc1 [Ispinesib] + N=C(N)NC(=N)NCCc1ccccc1 [Phenformin] (partner 250 µM)
How it was run: (§1)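 Cells from lung cancer lines were seeded into 1536-well plates and, one day later, dosed by pin tool. Treatments were either a single drug or a fixed dose of an anchor drug with five library-drug doses (not always all listed) in √10 steps. After 5 days, nuclei were stained in a one-step fixation (final 0.05% Triton X-100, 1% formaldehyde, 1 ug/ml Hoechst) and counted on 4× images, and relative viability is the treated-to-vehicle nuclei ratio, as the median of duplicate plates.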

[2] = compound: Cc1ccc(C(=O)N(CCCN)[C@@H](c2nc3cc(Cl)ccc3c(=O)n2Cc2ccccc2)C(C)C)cc1 [Ispinesib] + COc1cccc2cc(-c3nc([C@H]4CC[C@H](C(=O)O)CC4)n4ncnc(N)c34)[nH]c12 [OSI-027] (partner 0.5 µM)
How it was run: as §1

[3] = compound: C[C@]1(O)C[C@@H](c2nc(-c3ccc4ccc(-c5ccccc5)nc4c3)c3c(N)nccn32)C1 [Linsitinib] + Cc1nc(Nc2ncc(C(=O)Nc3c(C)cccc3Cl)s2)cc(N2CCN(CCO)CC2)n1 [Dasatinib] (partner 0.075 µM)
How it was run: as §1

[4] = compound: C[C@]1(O)C[C@@H](c2nc(-c3ccc4ccc(-c5ccccc5)nc4c3)c3c(N)nccn32)C1 [Linsitinib] + CS(=O)(=O)CCNCc1ccc(-c2ccc3ncnc(Nc4ccc(OCc5cccc(F)c5)c(Cl)c4)c3c2)o1 [Lapatinib] (partner 2 µM)
How it was run: as §1

| Cell Line | relative viability ([1]; first compound 0.001 µM) | relative viability ([1]; first compound 0.003162 µM) | relative viability ([1]; first compound 0.01 µM) | relative viability ([1]; first compound 0.03162 µM) | relative viability ([1]; first compound 0.1 µM) | relative viability ([2]; first compound 0.001 µM) | relative viability ([2]; first compound 0.003162 µM) | relative viability ([2]; first compound 0.01 µM) | relative viability ([2]; first compound 0.03162 µM) | relative viability ([2]; first compound 0.1 µM) | relative viability ([3]; first compound 0.01 µM) | relative viability ([3]; first compound 0.03162 µM) | relative viability ([3]; first compound 0.1 µM) | relative viability ([3]; first compound 1 µM) | relative viability ([4]; first compound 0.01 µM) | relative viability ([4]; first compound 0.03162 µM) | relative viability ([4]; first compound 0.1 µM) | relative viability ([4]; first compound 1 µM) | relative viability ([3]; first compound 0.3162 µM) | relative viability ([4]; first compound 0.3162 µM) |
| --- | --- | --- | --- | --- | --- | --- | --- | --- | --- | --- | --- | --- | --- | --- | --- | --- | --- | --- | --- | --- |
| HOP-62 | 0.774 | 0.728 | 0.709 | 0.632 | 0.225 | 0.756 | 1.07 | 1.05 | 0.76 | 0.444 | 0.65 | 0.692 | 0.643 | 0.565 | 1.06 | 1.15 | 1.01 | 0.631 |  |  |
| LC-2-ad | 0.646 | 0.638 | 0.611 | 0.285 | 0.207 | 0.808 | 0.855 | 0.973 | 0.352 | 0.264 | 0.481 | 0.31 | 0.385 | 0.236 | 0.934 | 0.691 | 0.941 | 0.766 | 0.271 | 0.332 |
| LCLC-97TM1 | 0.356 | 0.435 | 0.486 | 0.336 | 0.129 | 0.629 | 0.616 | 0.553 | 0.239 | 0.12 | 0.842 | 0.64 | 0.842 | 0.614 | 0.953 | 0.75 | 0.639 | 0.193 | 0.602 | 0.403 |
| LK-2 | 0.377 | 0.475 | 0.4 | 0.318 | 0.291 | 0.2 | 0.256 | 0.194 | 0.176 | 0.213 | 0.281 | 0.328 | 0.212 | 0.197 | 0.899 | 0.995 | 0.844 | 0.695 | 0.228 | 0.657 |
| LOU-NH91 | 0.708 | 0.753 | 0.774 | 0.563 | 0.262 | 0.72 | 0.776 | 0.83 | 0.59 | 0.236 | 0.561 | 0.612 | 0.545 | 0.456 | 0.698 | 0.655 | 0.706 | 0.579 | 0.645 | 0.741 |
| LU99A | 0.892 | 0.837 | 0.965 | 0.373 | 0.235 | 0.268 | 0.294 | 0.299 | 0.264 | 0.189 | 0.553 | 0.52 | 0.539 | 0.289 | 0.953 | 0.951 | 0.952 | 0.57 | 0.334 | 0.377 |
| LXF-289 | 0.515 | 0.527 | 0.541 | 0.392 | 0.0531 | 0.813 | 0.834 | 0.806 | 0.593 | 0.0721 | 0.244 | 0.203 | 0.182 | 0.191 | 0.924 | 0.911 | 0.901 | 0.886 |  | 0.643 |
| NCI-H23 | 0.921 | 0.752 | 0.795 | 0.61 | 0.171 | 0.581 | 0.656 | 0.808 | 0.235 | 0.201 | 0.837 | 0.807 | 0.571 | 0.366 | 1.19 | 0.904 | 1.04 | 0.587 | 0.415 | 0.21 |
